Source: US20200278355A1, “CONJUGATED PROTEINS AND USES THEREOF” (THE SCRIPPS RESEARCH INSTITUTE, priority 2017, published 2020)

Biological target: T1, RBM45-NR0B1 interaction (Homo sapiens, UniProt P51843)
T1 construct: endogenous in cells; host or cells: H460 cells (also H2122 and A549) stably expressing FLAG-RBM45 by lentiviral transduction (FLAG-pLJM1)
T1 sequence (P51843 1-470): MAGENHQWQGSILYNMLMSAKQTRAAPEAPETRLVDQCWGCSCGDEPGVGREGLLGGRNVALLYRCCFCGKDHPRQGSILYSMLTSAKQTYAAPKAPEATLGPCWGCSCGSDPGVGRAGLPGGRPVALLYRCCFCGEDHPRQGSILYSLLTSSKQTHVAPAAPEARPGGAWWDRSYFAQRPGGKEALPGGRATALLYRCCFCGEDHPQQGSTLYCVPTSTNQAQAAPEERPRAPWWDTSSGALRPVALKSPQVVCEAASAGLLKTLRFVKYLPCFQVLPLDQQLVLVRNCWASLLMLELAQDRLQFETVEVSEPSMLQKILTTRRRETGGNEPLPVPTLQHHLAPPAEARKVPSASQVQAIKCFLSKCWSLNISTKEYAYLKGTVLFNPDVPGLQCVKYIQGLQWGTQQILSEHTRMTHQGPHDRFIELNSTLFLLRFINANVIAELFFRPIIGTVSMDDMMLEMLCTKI
Test: RBM45-NR0B1 interaction in NSCLC cells stably expressing FLAG-RBM45 (FLAG immunoprecipitation)
Format: cell-based
Conditions: 3 h; for blockade of the RBM45-NR0B1 interaction: H460 cells; for blockade of NR0B1 binding to FLAG-RBM45: H2122 and A549 cells
Experimental: FIG. 6A-FIG. 6F show characterization of NR0B1 ligands in KEAP1-mutant NSCLC cells. […] Dashed lines designate R values≥3 (DMSO/compound), which was used as a cutoff to define cysteines liganded by the indicated compounds. Insets show MS1 profiles for C274 in NR0B1 for DMSO (blue) versus compound (red) treatment. Data are from individual experiments representative of at least three biological replicates. […] (See also Table 5). […] H460 cells stably expressing FLAG-RBM45 were incubated with indicated compounds for 3 h, whereupon FLAG immunoprecipitates were performed and analyzed by immunoblotting. […] Experiments performed as described in (C). […] Dashed line designates R values (light/heavy) of <8, which was used as a cutoff for fast-turnover proteins. […] Charts comparing fraction of NRF2-regulated genes (as determined by RNAseq) for which the corresponding proteins are designated as fast or slow turnover (as determined in G) further divided into groups showing reduced expression (left) or not (right) on day 1 following NRF2 knockdown (as determined by isoTOP-ABPP).
FIG. 12A-FIG. 12G show characterization of NR0B1 ligands in Keap1-mutant NSCLC cells. […] Data obtained from isoTOP-ABPP experiments of H460 cells treated with compound (red traces) or DMSO (blue traces) for 3 h. […] Shown are MS1 profiles for quantified cysteines in NR0B1 following treatment with BPK-29 (40 μM, red; top) BPK-26 (40 μM, red; bottom) or DMSO (blue) for 3 h. […] KEAP1-null HEK293T cells stably expressing FLAG-RBM45 or FLAG-SNW1 were incubated with the indicated compounds for 3 h, after which FLAG immunoprecipitates were prepared from cell lysates. Immunoprecipitates and lysates were analyzed by immunoblotting for the indicated proteins. Dashed lines represent a lane that was cropped from this immunoblot. […] H2122 or A549 cells stably expressing FLAG-RBM45 were incubated with the indicated compounds for 3 h, after which FLAG immunoprecipitates were prepared. Immunoprecipitates and lysates were analyzed as described in (E). […] H2122 cells stably expressing FLAG-RBM45 or A549 cells stably expressing FLAG-SNW1 were incubated with indicated compounds for 3 h and FLAG immunoprecipitates were prepared and analyzed as described in (E).
Confluent 10 cm plates of indicated cell lines were rinsed once with warm PBS and incubated in serum/dye-free RPMI with indicated compounds or vehicle for 3 h at 37° C. Cells were washed once ice-cold PBS and snap frozen.
Cells were rinsed once with ice-cold PBS, and lysed by sonication in Triton IP buffer. Lysates were clarified by centrifugation at 16,000×g for 10 min. […] Proteins were resolved by SDS-PAGE, analyzed by immunoblotting and relative band intensities were quantified using ImageJ software.

| blockade of the RBM45-NR0B1 interaction | blockade of NR0B1 binding to FLAG-RBM45 | Structure (SMILES) |
| --- | --- | --- |
| block | block | O=C(CCl)N(Cc1cccc(Cl)c1F)c1ccc(Cl)nc1 [BPK-26, 2-chloro-N-(3-chloro-2-fluorobenzyl)-N-(6-chloropyridin-3-yl)acetamide] |
| block | block | O=C(c1ccc(N2CCOCC2)cc1)N1CCCC(N(Cc2ccccc2)C(=O)CCl)CC1 (stereo not shown) [BPK-29, N-benzyl-2-chloro-N-(1-(4-morpholinobenzoyl)azepan-4-yl)acetamide] |
